Data published in EP4274570B1, “ACTIVATORS OF THE BMP/SMAD AXIS FOR USE IN TREATING AND/OR PREVENTING MUSCLE ATROPHY” (Università Degli Studi Di Torino, priority 2021, dated 2022).

What was measured:
C2C12 myotubes [1] = test: Measurement of C2C12 myotube diameters; format: cell-based, murine; conditions: for C26 CM-induced atrophy (myotube diameter): 10% C26 conditioned medium, FK506 1µg/mL or siFKBP12 transfection; for hypertrophy (myotube diameter): BMP6 1ng/mL as positive control
Experimental: When the confluence of 80-90% is reached, they are differentiated into myotubes in DMEM/2% HS medium for 4 days.
For the signaling experiments, two hours prior to treatment, the DMEM differentiation medium without serum was changed, followed by 1h of treatment with FK506 (1 µg/mL) or BMP6 (30ng/mL).
The myotubes were analyzed 48h after transfection to establish the diameters and lysates for RNA extraction.
Photographs of the myotubes were taken using 20X magnification bright field microscopy (Zeiss) and their diameter was measured using FIJI software.

[2] = test system: BMP-SMAD1/5/8 signaling pathway; conditions: hepatocytes; cited from earlier work
C2C12 myotubes [3] = test: Protein ubiquitination flow after proteasome inhibition (MG132) in C2C12 myotubes; format: cell-based, murine; conditions: FK506 1µg/mL plus Activin A 1ng/mL, with and without MG132 1µM, 1h
Experimental: (§1) The myotubes were treated with 10% C26 conditioned medium (C26 CM (9)) or Activin A (1ng/mL R&D # 338-AC), FK506 (1µg/mL Cayman Chemical, #10007965), BMP6 (1ng/mL R&D Systems, 6325-BM), cyclosporine A (1µM Tocris Biosciences #1101), DMH1 (5µM CAS No 1206711-16-1) or with DMEM/2%HS (CTR) differentiation medium for 24h to measure their diameter. For the signaling experiments, two hours prior to treatment, the DMEM differentiation medium without serum was changed, followed by 1h of treatment with FK506 (1 µg/mL) or BMP6 (30ng/mL). The protein ubiquitination flow was measured by treating in C2C12 myotubes with FK506 1µg/mL, Activin A 1ng/mL (ACTA), and the combination of the two, with and without MG132 proteasome inhibitor (Senta Cruz Biotechnology, SC-351846), 1µM for 1h.
(§2) C2C12 myotubes were lysed in RIPA lysis buffer (150mM NaCl, 50mM Tris-HCl, 0.5% sodium deoxycholate, 1.0% Triton X-100, 0.1% SDS, and 1mM EDTA) with protease and phosphatase inhibitors (Roche, #0490837001, #11697498001). The protein concentration was determined using the BCA assay (Thermo Fisher Scientific). 15µg of proteins from cell lysates were loaded for performing SDS-PAGE, then transferred onto PVDF membrane for immunoblotting analysis. The primary antibodies used are: SMAD1 (Cell Signaling, #9743), P-SMAD1/5 (Cell Signaling, #13820T), vinculin (Cell Signaling #4650), ubiquitin (Abcam, #7780).

SMAD1/5 = test: Western blot of SMAD1/5 phosphorylation in C2C12 myotubes; format: cell-based, murine; conditions: FK506 1µg/mL
Experimental: as §1, §2

[4] = test system: Colon-26 (C26) murine tumor cachexia model; test: Colon-26 (C26) tumor cachexia model, oral treatment; format: in vivo; conditions: C26 mice, FK506 0.02 mg/Kg daily oral
Experimental: (§3) FK506 (Cayman Chemical, #10007965) was dissolved in DMSO (5mg/mL) and then diluted in a 5% glucose and water solution for oral administration in order to reach the final concentration of 0.02mg/kg. All the mice were subjected to one day of treatment, prior to inoculation of colon-26 (C26) adenocarcinoma cells into the right flank of three-month-old Balb C females (Charles River #028) (0.7x10^6 cells/mouse). All the mice were treated daily with FK506 (0.02 mg/Kg) or 5% glucose buffer DMSO vehicle.
Maximum muscle strength was measured on the day of inoculation (day 0) and the day of sacrifice (day 11) using the Grip Strength Test (Bioseb).
(§4) The gastrocnemii, tumors, and subcutaneous and inguinal adipose tissue were isolated, weighed, and normalized for the tibia length of each mouse.
The fresh gastrocnemii were frozen in liquid nitrogen-cooled isopentane and stored at -80°C. 7µm cross-sections were performed using a cryostat. Immunofluorescence was performed by securing the tissues in 4% PFA, blocking with […] in PBS before incubating with the primary antibody for laminin (sc-59854), and with the secondaries (ALEXA488) and DAPI (Abcam 228549). The photographs were taken with a fluorescence microscope to evaluate the cross-sectional area of the fibers.
The total RNA from the frozen tissues was extracted with TRIzol reagent (Invitrogen) following the manufacturer's instructions. 0.5-1µg of total RNA were retrotranscribed using High Capacity cDNA Reverse Transcriptase kit (Applied Biosystems). The cDNA was analyzed with Real Time Quantitative PCR (ABI PRISM 7900HT FAST Real-Time PCR system, Applied Biosystems) using Luna Universal Probe qPCR master mix (Nebb) and Universal Probe Library system (Roche Applied Science). The relative mRNA levels were calculated using the 2-ΔΔCT method and normalizing for the GAPDH levels. The following primers were used: Atrogin1 F: 5'-[…]-3' (SEQ ID No. 1), R: 5' […]-3' (SEQ ID No. 2); Murf1 F: 5'[…]-3' (SEQ ID No. 3), R: 5'-tcgtcttcgtgttccttgc-3' (SEQ ID No. 4); Musa1 F: 5'-gagaagccagggtttgagc-3' (SEQ ID No. 5), R: 5'-[…]-3' (SEQ ID No. 6); Cathepsin L F: 5'-[…]-3' (SEQ ID No. 7), R: 5'-[…]-3' (SEQ ID No. 8); FKBP12 F: 5'-atgggagtgcaggtggag-3' (SEQ ID No. 9), R: 5'-[…]-3' (SEQ ID No. 10). GAPDH F: 5'-[…]-3' (SEQ ID No. 11), R: 5'-[…]-3' (SEQ ID No. 12).

Balb C mice = test: Hypertrophy experiment in Balb C mice without tumor, oral treatment; format: in vivo
Experimental: as §3, §4
4-month-old Balb C females were treated orally every day for 4 weeks (5 days per week), with 0.02mg/Kg/day FK506 in 5% glucose solution or with vehicle (CTR). The maximum strength was measured weekly with the Grip Strength Test.

[5] = test system: pGL3-BMP responsive element (BRE)-Luc; test: Luciferase assay with pGL3-BMP responsive element (BRE)-Luc reporter in C2C12 myoblasts; format: cell-based, murine; conditions: FK506 1µg/mL, 5h, compared with BMP6 1ng/mL
Experimental: C2C12 myoblasts were transfected with the pGL3-BMP responsive element (BRE)-Luc plasmid (Addgene #45126) to measure the promoter activation by the SMAD1/5/8 proteins. The cells were treated with FK506 (1µg/mL) or BMP6 (1ng/mL) 15h posttransfection. The luminescence was measured using Dual-Luciferase Reporter Assay System (Promega) after 5h of treatment according to the manufacturer's instructions.

immune populations = test: FACS of immune populations in blood, spleens and tumors of C26 mice; format: in vivo; conditions: FK506 0.02 mg/Kg daily oral
Experimental: The blood was extracted and incubated with erythrocyte lysis buffer for 10 minutes at room temperature. After washing with PBS, the cells were collected, incubated with Fc-receptor blocker (anti-CD16/CD32 antibody, BD Bioscience #101302) and stained for 30 minutes at 4°C with the antibodies.
The primary tumors were extracted, crushed, and digested with collagenase IV (1mg/mL) (Sigma Aldrich #C4-28) in RPMI-1640 at 37°C for 1h. After washing the tissues with RPMI-1640/10% FBS, the suspension was passed through a 70-µm pore filter, centrifuged at 1400rpm for 10 minutes and incubated with the erythrocyte lysis buffer (155 mM NH4Cl, 15.8 mM Na2CO3, 1 mM EDTA, pH 7.3) for 10 minutes at room temperature. After washing with RPMI-1640/10% FBS, 1 million cells were resuspended in PBS, treated with Fc-receptor blocker (anti-CD16/CD32 antibody, BD Bioscience #101302) and stained for 30 minutes at 4°C with the antibodies.

[6] = test system: post-transplant diabetes mellitus rats; conditions: 1 mg/kg/d; cited from earlier work
tibialis anterior = conditions: mice treated for 9 days; cited from earlier work

For `C=CC[C@@H]1/C=C(\C)C[C@H](C)C[C@H](OC)[C@H]2O[C@@](O)(C(=O)C(=O)N3CCCC[C@H]3C(=O)O[C@H](/C(C)=C/[C@@H]3CC[C@@H](O)[C@H](OC)C3)[C@H](C)[C@@H](O)CC1=O)[C@H](C)C[C@@H]2OC` [tacrolimus], the “C26 CM-induced atrophy (myotube diameter)” value (C2C12 myotubes [1]; 24h, listed as FK506) was “capable of preventing C26 CM-induced atrophy”, the “C26 CM-induced atrophy (myotube diameter)” value (C2C12 myotubes [1]; 24h, listed as Tacrolimus) was “capable of preventing” and the “hypertrophy (myotube diameter)” value (C2C12 myotubes [1]; FK506 1µg/mL, 24h, listed as FK506) was “capable of inducing significant hypertrophy”. The “hypertrophy (myotube diameter)” value (C2C12 myotubes [1]; FK506 1µg/mL, 24h, listed as Tacrolimus) was “induces levels of hypertrophy comparable to BMP6”, the “ACTA-induced atrophy (myotube diameter)” value (C2C12 myotubes [1]; FK506 1µg/mL, Activin A 1ng/mL, 24h) was “capable of preventing” and the “effect of tacrolimus on myotube diameter under ALK2 silencing” value (C2C12 myotubes [1]; siALK2-transfected C2C12 myotubes, FK506 1µg/mL) was “nullifies the effect of tacrolimus”. For the same compound, the “phosphorylation of SMAD 1/5/8 proteins” value [2] was “increasing the phosphorylation of SMAD 1/5/8 proteins”, the “transcription of their epcidin target” value [2] was “increasing” and the “ACTA-induced increase in protein ubiquitination” value (C2C12 myotubes [3]) was “completely reversed”. The “phosphorylation levels of SMAD1/5” value (SMAD1/5; 1h, without stimulation by any extracellular ligand) was “capable of increasing the phosphorylation levels of SMAD1/5”, the “effect of tacrolimus on phosphorylation of the Smad1/5/8 proteins under ALK2 silencing” value (SMAD1/5; siALK2-transfected C2C12 myotubes) was “nullifies the effect of tacrolimus” and the body weight loss ([4]; 11 days) was “capable of preventing”. For the same compound, the “fat loss (subcutaneous and inguinal adipose tissue)” value ([4]; 11 days) was “capable of preventing”, the “weight of the tumor” value ([4]; at sacrifice) was “without altering the weight of the tumor” and the “maximum muscle strength (Grip Strength test)” value ([4]; end of the experiment (day 11)) was “increased maximum muscle strength”. For the same compound, the “expression of atrogens (Atrogin 1, MuRF-1, Musa1, Cathepsin L mRNA) in the gastrocnemii” value ([4]; normalized for GAPDH) was “reduced expression of all the atrogens”, the “muscle atrophy in terms of muscle fiber diameter” value ([4]; gastrocnemius cross-section) was “capable of preventing muscle atrophy” and the “muscle atrophy in terms of skeletal muscle weight” value ([4]; gastrocnemius weight normalized for tibia length) was “capable of preventing muscle atrophy”. For the same compound, the “maximum muscle strength (Grip Strength test)” value (Balb C mice; 0.02mg/Kg/day oral, 4 weeks, day 29, versus vehicle (CTR)) was “significantly increases maximum muscle strength”, the muscle mass (Balb C mice; oral non-immunosuppressive doses, 11 days) was “capable of increasing the mass of the quadriceps” and the BRE-Luc reporter activation [5] was “capable of exceeding the BMP6 positive control in reporter activation”. The “amount and state of activation of the main immune populations” value (immune populations) was “has no effect on these parameters” and the “muscle atrophy at high immunosuppressive doses” value [6] was “induces muscle atrophy”.
With `CC(C)Oc1ccc(-c2cnc3c(-c4ccnc5ccccc45)cnn3c2)cc1` [DMH1] the “effect of DMH1 on tacrolimus-induced hypertrophy and protection from C26 CM-induced atrophy (myotube diameter)” value (C2C12 myotubes [1]; DMH1 5µM, FK506 1µg/mL, 10% C26 CM, 24h) was “nullifies both the hypertrophic effect of tacrolimus and the protection of C26 (C26 CM) tumor medium-induced atrophy”.
For `c1ccc2c(-c3cnn4cc(-c5ccc(N6CCNCC6)cc5)cnc34)ccnc2c1` [LDN-193189], the “atrophy in the myofibers of the tibialis anterior” value (tibialis anterior) is listed as 21% and the “baseline phosphorylation levels of Smad1/5/8” value (tibialis anterior) is listed as “reduction in baseline phosphorylation levels of Smad1/5/8”.
